The record followed here is ChEMBL document CHEMBL5335775, “Bioisosteric replacement of 1H-1,2,3-triazole with 1H-tetrazole ring enhances anti-leukemic activity of (5-benzylthiazol-2-yl)benzamides” (Eur J Med Chem, 2023).

Activity calls are given as the source filed them. The calls are words filed in the database; no cut-off is given here.

One data set has as its system DU-145. In words: Antiproliferative activity against human DU-145 cells assessed as inhibition of cell proliferation incubated for 3 days by Alamar blue dye based assay. The note with it: DU-145, 72 h. It counts as functional. (In general: Resazurin is reduced to fluorescent resorufin, in cell work by metabolically active cells.)
Data set [1] concerns MDA-MB-468. In words: Antiproliferative activity against human MDA-MB-468 cells assessed as inhibition of cell proliferation measured after 48 hrs by SRB assay. It counts as functional, cell-based. The note with it: MDA-MB-468, 48 h.
A further data set relates to BT-549. Description: Antiproliferative activity against human BT-549 cells assessed as inhibition of cell proliferation measured after 48 hrs by SRB assay. It counts as functional, cell-based. The note with it: BT-549, 48 h. (In general: Sulforhodamine B stains cellular protein and so reports cell mass.)
For data set [2], the system named is OVCAR-4. In words: Antiproliferative activity against human OVCAR-4 cells assessed as inhibition of cell proliferation measured after 48 hrs by SRB assay. To be noted: OVCAR-4, 48 h. It counts as functional, cell-based.
Data set [3] concerns NCI/ADR-RES. Description: Antiproliferative activity against human NCI-ADR-RES cells assessed as inhibition of cell proliferation measured after 48 hrs by SRB assay. It counts as functional, cell-based.
Data set [4] deals with CAKI-1. In words: Antiproliferative activity against human CAKI-1 cells assessed as inhibition of cell proliferation measured after 48 hrs by SRB assay. It counts as functional, cell-based. The note with it: CAKI-1, 48 h.
The test system of another data set is PC-3. In words: Antiproliferative activity against human PC-3 cells assessed as inhibition of cell proliferation measured after 48 hrs by SRB assay. It counts as functional, cell-based. To be noted: PC-3, 48 h.
Data set [5] relates to KM12. In words: Antiproliferative activity against human KM12 cells assessed as inhibition of cell proliferation measured after 48 hrs by SRB assay. It counts as functional, cell-based. The note with it: KM12, 48 h.
Data set [6] concerns SK-MEL-5. Description: Antiproliferative activity against human SK-MEL-5 cells assessed as inhibition of cell proliferation measured after 48 hrs by SRB assay. It counts as functional, cell-based. To be noted: SK-MEL-5, 48 h.
The subject of data set [7] is UACC-62. Description: Antiproliferative activity against human UACC-62 cells assessed as inhibition of cell proliferation measured after 48 hrs by SRB assay. The data set is classed as functional, cell-based. To be noted: UACC-62, 48 h.
The test system of data set [8] is K562. In words: Anticancer activity against human K562 cells assessed as cell growth at 10^-5 M incubated for 48 hrs by SRB assay relative to control. The data set is classed as functional. To be noted: K562, 48 h, dose 1 10^-5M, read-out: Activity.
Data set [9] deals with K562. In words: Antiproliferative activity against human K562 cells assessed as inhibition of cell proliferation measured after 72 hrs by MTT assay. The data set is classed as functional, cell-based. The note with it: K562, 72 h. (In general: Formazan colour is commonly taken as a measure of viable cells.)
A short description of data set [10]: Antiproliferative activity against human HaCaT cells assessed as inhibition of cell proliferation measured after 72 hrs by MTT assay. It counts as toxicity, cell-based.
A short description of data set [11]: Antiproliferative activity against NIH3T3 cells assessed as inhibition of cell proliferation measured after 72 hrs by MTT assay. The note with it: mouse. The data set is classed as toxicity, cell-based.
Data set [12] in a line: Antiproliferative activity against J774.2 cells assessed as inhibition of cell proliferation measured after 72 hrs by MTT assay. It counts as toxicity, cell-based. The note with it: mouse.
Another data set concerns NCI-H460. In words: Anticancer activity against human NCI-H460 cells assessed as cell growth at 10^-5 M incubated for 48 hrs by SRB assay relative to control. The data set is classed as functional. The note with it: NCI-H460, 48 h, dose 1 10^-5M, read-out: Activity.
In another data set the test system is HCT-15. Description: Anticancer activity against human HCT-15 cells assessed as cell growth at 10^-5 M incubated for 48 hrs by SRB assay relative to control. The data set is classed as functional. To be noted: HCT-15, 48 h, dose 1 10^-5M, read-out: Activity.
Data set [13] deals with KM12. Description: Anticancer activity against human KM12 cells assessed as cell growth at 10^-5 M incubated for 48 hrs by SRB assay relative to control. It counts as functional. To be noted: KM12, 48 h, dose 1 10^-5M, read-out: Activity.
The test system of a further data set is MDA-MB-435. Description: Anticancer activity against human MDA-MB-435 cells assessed as cell growth at 10^-5 M incubated for 48 hrs by SRB assay relative to control. The data set is classed as functional. To be noted: MDA-MB-435, 48 h, dose 1 10^-5M, read-out: Activity.
For data set [14], the system named is UACC-62. Description: Anticancer activity against human UACC-62 cells assessed as cell growth at 10^-5 M incubated for 48 hrs by SRB assay relative to control. The data set is classed as functional. The note with it: UACC-62, 48 h, dose 1 10^-5M, read-out: Activity.
In another data set the test system is ACHN. Description: Anticancer activity against human ACHN cells assessed as cell growth at 10^-5 M incubated for 48 hrs by SRB assay relative to control. The data set is classed as functional. To be noted: dose 1 10^-5M, read-out: Activity.
The subject of data set [15] is CAKI-1. In words: Anticancer activity against human CAKI-1 cells assessed as cell growth at 10^-5 M incubated for 48 hrs by SRB assay relative to control. The data set is classed as functional. The note with it: CAKI-1, 48 h, dose 1 10^-5M, read-out: Activity.
For the next data set, the system named is MCF7. In words: Anticancer activity against human MCF7 cells assessed as cell growth at 10^-5 M incubated for 48 hrs by SRB assay relative to control. It counts as functional. To be noted: MCF7, 48 h, dose 1 10^-5M, read-out: Activity.
Data set [16] concerns MDA-MB-468. In words: Anticancer activity against human MDA-MB-468 cells assessed as cell growth at 10^-5 M incubated for 48 hrs by SRB assay relative to control. It counts as functional. The note with it: MDA-MB-468, 48 h, dose 1 10^-5M, read-out: Activity.
For a further data set, the system named is SF-295. In words: Anticancer activity against human SF-295 cells assessed as cell growth at 10^-5 M incubated for 48 hrs by SRB assay relative to control. It counts as functional. The note with it: SF-295, 48 h, dose 1 10^-5M, read-out: Activity.
Data set [17] concerns SK-MEL-5. Description: Anticancer activity against human SK-MEL-5 cells assessed as cell growth at 10^-5 M incubated for 48 hrs by SRB assay relative to control. It counts as functional. The note with it: SK-MEL-5, 48 h, dose 1 10^-5M, read-out: Activity.
For another data set, the system named is MOLT-4. Description: Anticancer activity against human MOLT-4 cells assessed as cell growth at 10^-5 M incubated for 48 hrs by SRB assay relative to control. It counts as functional. To be noted: MOLT-4, 48 h, dose 1 10^-5M, read-out: Activity.
A further data set deals with A549. Description: Anticancer activity against human A549 cells assessed as cell growth at 10^-5 M incubated for 48 hrs by SRB assay relative to control. It counts as functional. To be noted: A549, 48 h, dose 1 10^-5M, read-out: Activity.
Data set [18] concerns OVCAR-4. Description: Anticancer activity against human OVCAR-4 cells assessed as cell growth at 10^-5 M incubated for 48 hrs by SRB assay relative to control. The data set is classed as functional. To be noted: OVCAR-4, 48 h, dose 1 10^-5M, read-out: Activity.
Data set [19] deals with NCI/ADR-RES. Description: Anticancer activity against human NCI/ADR-RES cells assessed as cell growth at 10^-5 M incubated for 48 hrs by SRB assay relative to control. It counts as functional. To be noted: dose 1 10^-5M, read-out: Activity.
Data set [20] is described as follows: Selectivity index, ratio of IC50 for […] to IC50 for human K562 cells. The data set is classed as functional.
The next data set concerns T47D. In words: Antiproliferative activity against human T47D cells assessed as inhibition of cell proliferation measured after 48 hrs by SRB assay. The data set is classed as functional, cell-based.
In a further data set the test system is Hep 3B2. In words: Antiproliferative activity against human Hep3B cells assessed as inhibition of cell proliferation. It counts as functional, cell-based.
For data set [21], the system named is K562. In words: Induction of DNA damage in human K562 cells assessed as tail DNA level at 70 nM incubated for 24 hrs by comet assay (reference value: 0.5 to 0.6 %). The data set is classed as functional.
The subject of data set [22] is K562. Description: Induction of DNA damage in human K562 cells assessed as tail DNA level at 700 nM incubated for 24 hrs by comet assay (reference value: 0.5 to 0.6 %). The data set is classed as functional.
For data set [23], the system named is K562. Description: Induction of DNA damage in human K562 cells assessed as olive tail moment level at 70 nM incubated for 24 hrs by comet assay (reference value: 0.2). It counts as functional.
Data set [24] relates to K562. In words: Induction of DNA damage in human K562 cells assessed as olive tail moment level at 700 nM incubated for 24 hrs by comet assay (reference value: 0.2). The data set is classed as functional.
Data set [25] deals with K562. In words: Induction of pro-apoptotic morphological changes in human K562 cells at 70 to 700 nM incubated for 24 hrs by Hoescht-33342 staining based analysis. It counts as functional, cell-based. The note with it: dose 70-700 nM.

As usually defined, the IC50 is the concentration needed to halve the response being measured. Turning to `COc1ccc(Cc2cnc(NC(=O)/C=C/c3ccco3)s2)cc1`, in the data set on DU-145, the IC50 was 0.015 µM.

Take `Cc1cnnn1-c1ccc(C(=O)Nc2ncc(Cc3ccccc3)s2)cc1`: the IC50 with MDA-MB-468 [1] was 2.02 µM; in the data set with BT-549, 3.99 µM; in the data set with OVCAR-4 [2], 3.02 µM; in the data set on NCI/ADR-RES [3] it was 4.06 µM; in the data set on CAKI-1 [4], 4.7 µM; in the data set with PC-3, 4.26 µM. Moreover, the IC50 was found to be 3.68 µM with KM12 [5], 2.8 µM in the data set on SK-MEL-5 [6] and 3.28 µM in the data set with UACC-62 [7].

For the compound `COc1ccc(Cc2cnc(NC(=O)c3ccc(-n4cnnn4)cc3)s2)cc1`, the growth at 10 µM in the data set on K562 [8] came out at 36.7%. Also, in the data set with K562 [9], the IC50 was more than 100 µM. For the same compound, the IC50 at 72 h in [10] was more than 100 µM; in data set [11], more than 100 µM; in [12], 8.22 µM.

On to `O=C(Nc1ncc(Cc2cccc(C(F)(F)F)c2)s1)c1ccc(-n2cnnn2)cc1`, for which the growth at 10 µM in the data set on K562 [8] amounted to 21%; in the data set with NCI-H460, 30.5%; in the data set with HCT-15, 38.7%; with KM12 [13] it was 28.8%; in the data set on MDA-MB-435, 24%; in the data set with UACC-62 [14] it was 19.8%. In addition, the growth at 10 µM was 32% in the data set on ACHN; 30.1% with CAKI-1 [15]; 28.7% with MCF7; 16.7% with MDA-MB-468 [16]; 32.2% in the data set on SF-295; 37.8% in the data set with SK-MEL-5 [17]. For the same compound, the growth at 10 µM was 39.4% in the data set with MOLT-4, 34.4% with A549, 33.6% with OVCAR-4 [18] and 35.9% with NCI/ADR-RES [19]. For the same compound, the IC50 with K562 [9] turned out to be 23.7 µM. The IC50 at 72 h was more than 100 µM in data set [10], more than 100 µM in [11] and 43.2 µM in [12]. Moreover, in data set [20], the “Ratio IC50” value is given as 1.8.

For `O=C(/C=C/c1ccc(-n2cnnn2)cc1)Nc1ncc(Cc2ccccc2)s1`, the 50% inhibitory concentration (IC50) in the data set on K562 [9] amounted to 1.05 µM. Besides, the IC50 at 72 h in data set [10] is 50.4 µM; in data set [11], more than 100 µM; in [12] it was 37.2 µM. The “Ratio IC50” value in [20] is listed as 35.5.

Consider `O=C(Nc1ncc(Cc2cccc(Cl)c2Cl)s1)c1cc2ccccc2o1`, for which the IC50 in the data set with T47D was determined as 0.0255 µM.

Turning to `O=C(CCc1ccco1)Nc1ncc(Cc2ccccc2)s1`, the 50% inhibitory concentration (IC50) with Hep 3B2 was found to be 0.089 µM.

Turning to `COc1cccc2c1C(=O)c1c(O)c3c(c(O)c1C2=O)C[C@@](O)(C(=O)CO)C[C@@H]3O[C@H]1C[C@H](N)[C@H](O)[C@H](C)O1` [DOXORUBICIN], the IC50 at 72 h in [10] was determined as 0.86 µM; in data set [11], 0.79 µM; in [12], 0.64 µM. Also, the Activity with K562 [21] was 0.7%; in the data set on K562 [22] it was 3.5%; in the data set on K562 [23], 0.4; in the data set with K562 [24] it was 1. For the same compound, in the data set on K562 [25], the result was inactive.
